Earlier results as cited in patent publication US9604977B2, “Bicyclic thiophenylamide compounds” (Hoffmann-La Roche Inc., priority 2012, dated 2017).

## CCc1c(-c2ccccc2)c(-c2ccccc2)nn1-c1ccccc1-c1cccc(OCC(=O)O)c1 [BMS309403]
ob/ob mice; clamp study in ob/ob mice
  glucose uptake in muscle and adipose: increased glucose uptake in muscle and adipose
  hepatic glucose production: reduction of hepatic glucose production
ob/ob mice; ob/ob mice
  body weight and energy consumption: no change in body weight and energy consumption
  hepatic steatosis: reduction in hepatic steatosis
ApoE KO mice
  atherosclerotic plaques formation: decrease in atherosclerotic plaques formation

## Cc1noc(-c2c(NC(=O)C3=C(C(=O)O)CCCC3)sc3c2CCCC3)n1 [Compound 3]
Mice under HF diet
  insulin and glucose tolerance: no improvement in insulin and glucose tolerance
  plasma triglyceride and free fatty acid: reduction in plasma triglyceride and free fatty acid
